This passage reports relative viability results from the supplement of paper PMC10307832.

What all share (assay): relative viability (nuclei count vs DMSO), 5 days (fraction); higher = more cells survive
Compound in the experiment “AGI-6780 + OSI-027”: O=C(Nc1cccc(C(F)(F)F)c1)Nc1cc(S(=O)(=O)NC2CC2)ccc1-c1ccsc1 [AGI-6780] + COc1cccc2cc(-c3nc([C@H]4CC[C@H](C(=O)O)CC4)n4ncnc(N)c34)[nH]c12 [OSI-027] (partner 0.5 µM)
A digest of the protocol: (§1)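 For relative viability, nuclei counts in treated wells were divided by those in vehicle wells. Lung cancer cell lines had been pin-tool dosed in 1536-well plates the day after seeding and cultured for 5 days, then fixed and stained in one step (final 0.05% Triton X-100, 1% formaldehyde, 1 ug/ml Hoechst) and imaged at 4×. Doses were one drug alone or a fixed anchor-drug dose plus five library-drug doses (not always all listed) in √10 steps, and values are duplicate-plate medians.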

Compound in the experiment “AGI-6780 + Crizotinib”: O=C(Nc1cccc(C(F)(F)F)c1)Nc1cc(S(=O)(=O)NC2CC2)ccc1-c1ccsc1 [AGI-6780] + C[C@@H](Oc1cc(-c2cnn(C3CCNCC3)c2)cnc1N)c1c(Cl)ccc(F)c1Cl [Crizotinib] (partner 1 µM)
A digest of the protocol:
as §1

Compound in the experiment “AGI-6780 + Tozasertib”: O=C(Nc1cccc(C(F)(F)F)c1)Nc1cc(S(=O)(=O)NC2CC2)ccc1-c1ccsc1 [AGI-6780] + Cc1cc(Nc2cc(N3CCN(C)CC3)nc(Sc3ccc(NC(=O)C4CC4)cc3)n2)n[nH]1 [Tozasertib] (partner 0.1 µM)
A digest of the protocol:
as §1

Compound in the experiment “AGI-6780 + Linsitinib”: O=C(Nc1cccc(C(F)(F)F)c1)Nc1cc(S(=O)(=O)NC2CC2)ccc1-c1ccsc1 [AGI-6780] + C[C@]1(O)C[C@@H](c2nc(-c3ccc4ccc(-c5ccccc5)nc4c3)c3c(N)nccn32)C1 [Linsitinib] (partner 1 µM)
A digest of the protocol: as §1

As for SW 1573, the relative viability with AGI-6780 + OSI-027 (first compound 0.08 µM) worked out at 0.685; in the experiment with AGI-6780 + OSI-027 (first compound 0.253 µM) it was 0.656; in the experiment with AGI-6780 + OSI-027 (first compound 0.8 µM), 0.801; with AGI-6780 + OSI-027 (first compound 8 µM), 0.562; in the experiment with AGI-6780 + Crizotinib (first compound 0.08 µM), 0.786; with AGI-6780 + Crizotinib (first compound 0.253 µM) it was 0.883. Moreover, the relative viability with AGI-6780 + Crizotinib (first compound 0.8 µM) was determined as 0.912; in the experiment with AGI-6780 + Crizotinib (first compound 2.53 µM), 0.681; with AGI-6780 + Crizotinib (first compound 8 µM) it was 0.815; with AGI-6780 + Tozasertib (first compound 0.08 µM) it was 0.175; in the experiment with AGI-6780 + Tozasertib (first compound 0.253 µM), 0.261; with AGI-6780 + Tozasertib (first compound 0.8 µM), 0.254. In addition, the relative viability with AGI-6780 + Tozasertib (first compound 8 µM) turned out to be 0.139; with AGI-6780 + Linsitinib (first compound 0.08 µM) it was 0.818; with AGI-6780 + Linsitinib (first compound 0.253 µM) it was 0.911; in the experiment with AGI-6780 + Linsitinib (first compound 0.8 µM), 0.868; with AGI-6780 + Linsitinib (first compound 2.53 µM), 0.652; with AGI-6780 + Linsitinib (first compound 8 µM), 0.831.
For LU99A, the relative viability with AGI-6780 + OSI-027 (first compound 0.08 µM) stood at 0.339; in the experiment with AGI-6780 + OSI-027 (first compound 0.253 µM), 0.304; with AGI-6780 + OSI-027 (first compound 0.8 µM) it was 0.28; with AGI-6780 + OSI-027 (first compound 2.53 µM), 0.255; in the experiment with AGI-6780 + OSI-027 (first compound 8 µM), 0.31; with AGI-6780 + Crizotinib (first compound 0.08 µM) it was 0.606. For the same cell line, the relative viability with AGI-6780 + Crizotinib (first compound 0.253 µM) is 0.484; with AGI-6780 + Crizotinib (first compound 0.8 µM), 0.627; in the experiment with AGI-6780 + Crizotinib (first compound 2.53 µM), 0.473; with AGI-6780 + Crizotinib (first compound 8 µM), 0.669; with AGI-6780 + Tozasertib (first compound 0.08 µM), 0.237; with AGI-6780 + Tozasertib (first compound 0.253 µM) it was 0.275. In addition, the relative viability with AGI-6780 + Tozasertib (first compound 0.8 µM) stood at 0.294; in the experiment with AGI-6780 + Tozasertib (first compound 2.53 µM) it was 0.237; with AGI-6780 + Tozasertib (first compound 8 µM), 0.299; with AGI-6780 + Linsitinib (first compound 0.08 µM), 0.581; with AGI-6780 + Linsitinib (first compound 0.253 µM), 0.57; with AGI-6780 + Linsitinib (first compound 0.8 µM) it was 0.54. For the same cell line, the figures for the relative viability in the experiment with AGI-6780 + Linsitinib (first compound 2.53 µM) and with AGI-6780 + Linsitinib (first compound 8 µM) were 0.498 and 0.565, respectively.
As to NCI-H2405, the relative viability with AGI-6780 + OSI-027 (first compound 0.08 µM) came to 0.671; with AGI-6780 + OSI-027 (first compound 0.253 µM) it was 0.651; in the experiment with AGI-6780 + OSI-027 (first compound 0.8 µM), 0.525; in the experiment with AGI-6780 + OSI-027 (first compound 2.53 µM), 0.549; with AGI-6780 + OSI-027 (first compound 8 µM) it was 0.596; with AGI-6780 + Crizotinib (first compound 0.08 µM), 0.839. Moreover, the relative viability with AGI-6780 + Crizotinib (first compound 0.253 µM) was found to be 0.801; with AGI-6780 + Crizotinib (first compound 0.8 µM) it was 0.583; in the experiment with AGI-6780 + Crizotinib (first compound 2.53 µM) it was 0.827; in the experiment with AGI-6780 + Crizotinib (first compound 8 µM), 0.829; in the experiment with AGI-6780 + Tozasertib (first compound 0.08 µM), 0.813; with AGI-6780 + Tozasertib (first compound 0.253 µM) it was 0.728. Besides, the relative viability in the experiment with AGI-6780 + Tozasertib (first compound 0.8 µM) was 0.565; with AGI-6780 + Tozasertib (first compound 2.53 µM), 0.766; in the experiment with AGI-6780 + Tozasertib (first compound 8 µM), 0.661; with AGI-6780 + Linsitinib (first compound 0.08 µM), 0.931; with AGI-6780 + Linsitinib (first compound 0.253 µM), 0.933; in the experiment with AGI-6780 + Linsitinib (first compound 0.8 µM), 0.687. Besides, the relative viability in the experiment with AGI-6780 + Linsitinib (first compound 8 µM) was found to be 0.845.
Turning to NCI-H2228, the relative viability in the experiment with AGI-6780 + OSI-027 (first compound 0.08 µM) was determined as 0.617; with AGI-6780 + OSI-027 (first compound 0.253 µM), 0.589; in the experiment with AGI-6780 + OSI-027 (first compound 0.8 µM), 0.488; in the experiment with AGI-6780 + OSI-027 (first compound 2.53 µM), 0.367; with AGI-6780 + OSI-027 (first compound 8 µM) it was 0.685; with AGI-6780 + Crizotinib (first compound 0.08 µM), 0.492. Moreover, the relative viability in the experiment with AGI-6780 + Crizotinib (first compound 0.253 µM) came to 0.584; in the experiment with AGI-6780 + Crizotinib (first compound 0.8 µM), 0.453; in the experiment with AGI-6780 + Crizotinib (first compound 2.53 µM), 0.368; in the experiment with AGI-6780 + Crizotinib (first compound 8 µM), 0.512; in the experiment with AGI-6780 + Tozasertib (first compound 0.08 µM) it was 0.281; with AGI-6780 + Tozasertib (first compound 0.253 µM) it was 0.278. For the same cell line, the relative viability in the experiment with AGI-6780 + Tozasertib (first compound 0.8 µM) is 0.228; with AGI-6780 + Tozasertib (first compound 2.53 µM) it was 0.226; in the experiment with AGI-6780 + Tozasertib (first compound 8 µM), 0.201; with AGI-6780 + Linsitinib (first compound 0.08 µM), 0.8; with AGI-6780 + Linsitinib (first compound 0.253 µM) it was 1.07; with AGI-6780 + Linsitinib (first compound 0.8 µM), 0.604. The values for the relative viability with AGI-6780 + Linsitinib (first compound 2.53 µM) and in the experiment with AGI-6780 + Linsitinib (first compound 8 µM) were 0.754 and 0.629, respectively.
HOP-62: the relative viability was determined as 0.886 with AGI-6780 + OSI-027 (first compound 0.08 µM); 0.906 with AGI-6780 + OSI-027 (first compound 0.253 µM); 0.884 with AGI-6780 + OSI-027 (first compound 0.8 µM); 0.715 with AGI-6780 + OSI-027 (first compound 2.53 µM); 1.01 in the experiment with AGI-6780 + OSI-027 (first compound 8 µM); 0.857 with AGI-6780 + Crizotinib (first compound 0.08 µM). Besides, the relative viability with AGI-6780 + Crizotinib (first compound 0.253 µM) was found to be 0.919; with AGI-6780 + Crizotinib (first compound 0.8 µM) it was 0.971; in the experiment with AGI-6780 + Crizotinib (first compound 2.53 µM), 0.731; with AGI-6780 + Crizotinib (first compound 8 µM) it was 0.502; in the experiment with AGI-6780 + Tozasertib (first compound 0.08 µM), 0.328; in the experiment with AGI-6780 + Tozasertib (first compound 0.253 µM), 0.366. The relative viability was 0.398 with AGI-6780 + Tozasertib (first compound 0.8 µM); 0.302 with AGI-6780 + Tozasertib (first compound 2.53 µM); 0.408 in the experiment with AGI-6780 + Tozasertib (first compound 8 µM); 0.945 with AGI-6780 + Linsitinib (first compound 0.08 µM); 1.3 with AGI-6780 + Linsitinib (first compound 0.253 µM); 1.08 with AGI-6780 + Linsitinib (first compound 0.8 µM). Also, the relative viability amounted to 1.04 in the experiment with AGI-6780 + Linsitinib (first compound 2.53 µM) and 0.826 with AGI-6780 + Linsitinib (first compound 8 µM).
With NCI-H322M, the relative viability turned out to be 0.557 with AGI-6780 + OSI-027 (first compound 0.08 µM); 0.562 with AGI-6780 + OSI-027 (first compound 0.253 µM); 0.645 with AGI-6780 + OSI-027 (first compound 0.8 µM); 0.544 with AGI-6780 + OSI-027 (first compound 2.53 µM); 0.64 with AGI-6780 + OSI-027 (first compound 8 µM); 0.785 with AGI-6780 + Crizotinib (first compound 0.08 µM). Besides, the relative viability with AGI-6780 + Crizotinib (first compound 0.253 µM) was found to be 0.861; in the experiment with AGI-6780 + Crizotinib (first compound 0.8 µM), 1.02; in the experiment with AGI-6780 + Crizotinib (first compound 2.53 µM), 0.986; in the experiment with AGI-6780 + Crizotinib (first compound 8 µM), 0.858; with AGI-6780 + Tozasertib (first compound 0.08 µM) it was 0.517; with AGI-6780 + Tozasertib (first compound 0.253 µM), 0.508. Also, the relative viability was found to be 0.493 in the experiment with AGI-6780 + Tozasertib (first compound 0.8 µM); 0.425 with AGI-6780 + Tozasertib (first compound 2.53 µM); 0.515 in the experiment with AGI-6780 + Tozasertib (first compound 8 µM); 0.883 in the experiment with AGI-6780 + Linsitinib (first compound 0.08 µM); 0.969 with AGI-6780 + Linsitinib (first compound 0.253 µM); 1.03 with AGI-6780 + Linsitinib (first compound 0.8 µM). The relative viability in the experiment with AGI-6780 + Linsitinib (first compound 2.53 µM) was determined as 0.772; with AGI-6780 + Linsitinib (first compound 8 µM), 0.878.
For the cell line HCC-78, the relative viability with AGI-6780 + OSI-027 (first compound 0.253 µM) worked out at 0.37; with AGI-6780 + OSI-027 (first compound 0.8 µM) it was 0.431; in the experiment with AGI-6780 + OSI-027 (first compound 2.53 µM), 0.364; in the experiment with AGI-6780 + OSI-027 (first compound 8 µM), 0.355; with AGI-6780 + Crizotinib (first compound 0.08 µM) it was 0.378; in the experiment with AGI-6780 + Crizotinib (first compound 0.253 µM) it was 0.337. Besides, the relative viability with AGI-6780 + Crizotinib (first compound 0.8 µM) was 0.422; with AGI-6780 + Crizotinib (first compound 2.53 µM), 0.353; with AGI-6780 + Crizotinib (first compound 8 µM), 0.343; with AGI-6780 + Tozasertib (first compound 0.253 µM), 0.404; in the experiment with AGI-6780 + Tozasertib (first compound 0.8 µM) it was 0.452; in the experiment with AGI-6780 + Tozasertib (first compound 2.53 µM), 0.304. For the same cell line, the relative viability is 0.438 with AGI-6780 + Tozasertib (first compound 8 µM); 0.592 with AGI-6780 + Linsitinib (first compound 0.08 µM); 0.491 in the experiment with AGI-6780 + Linsitinib (first compound 0.253 µM); 0.587 with AGI-6780 + Linsitinib (first compound 0.8 µM); 0.561 in the experiment with AGI-6780 + Linsitinib (first compound 2.53 µM); 0.537 with AGI-6780 + Linsitinib (first compound 8 µM).
